In patent US7572798B2, “Combi-molecules having signal transduction inhibitory properties and DNA damaging properties” (McGill University, priority 2001, dated 2009):
Like-named read-outs stand apart in the source and are kept apart here.

Legend:
EGFR [1] = target: T1, EGFR (Homo sapiens, UniProt P00533); experiment: EGFR TK ELISA with PGT substrate (competitive binding at the ATP site); format: biochemical; design: purchased BIOMOL (Plymouth Meeting); also a gift from Pfizer Inc
Experimental: The ability of the combi-molecules to block EGFR TK activity was determined by an ELISA assay using poly(L-glutamic acid-L-tyrosine, 4:1) PGT as a substrate and commercially available EGFR.
Nunc MaxiSorp 96-well plates were incubated overnight at 37° C. with 100μL per well of 0.25 mg/mL PGT in PBS. Excess PGT was removed and the plates were washed 3 times with Tween 20 (0.1%) in PBS. […] The compound was added and phosphorylation initiated by the addition of ATP (20 μM). After 8 min at room temperature with constant shaking, the reaction was terminated by the aspiration of the reaction mixture and by rinsing the plate 4 times with wash buffer (Tween 20 (0.1%) in PBS). […] Antibody was removed by aspiration, and the plates washed 4 times with wash buffer. The signals were developed by the addition of 50 μL per well of TMB peroxidase substrate (Kierkegaard and Perry Laboratories, Gaithersberg, Md.).
This assay is similar to the one previously described. Nunc MaxiSorp 96-well plates were incubated overnight at 37° C. with 100 μl/well of 25 ng/ml PGT in PBS. Excess PGT was removed and the plates were washed three times with wash buffer (Tween 20 (0.1%) in PBS). […] The compound was added and phosphorylation initiated by the addition of ATP (20 μM). After 8 min at room temperature with constant shaking, the reaction was terminated by aspirating the mixture and by rinsing the plates four times with wash buffer Tween 20 (0.1%) in PBS. […] Antibody was removed by aspiration, and the plate washed four times with wash buffer. The signals were developed by the addition of 50 μl/well of 3,3′,5,5′-tetramethylbenzidine (TMB) peroxidase substrate (Kierkegaard and Perry Laboratories, Gaithersberg, Md., USA).

EGFR [2] = target: T1, EGFR; experiment: Reverse EGFR autophosphorylation (reversibility) assay in A431 cells; format: cell-based; conditions: A431, 30 μM
Experimental: To test this hypothesis, the reversibility assay (40, 41) was used, according to which the cells are treated with the drug for 90 min after which the culture medium is repeatedly removed and replaced 3 times, followed by the measurement of EGFR autophosphorylation.
A431 cells were grown to confluence in 6-well plates and then incubated in serum-free medium for 18 h (41). Duplicate sets of cells were then treated with 30 μM of each compound for 90 min. One set of cells was then stimulated with EGF (100 ng/ml) for 10 min and extracts were made as described under the Western blotting procedure above. The other set of cells was washed free of each compound with warmed serum-free media and incubated for 2 h. Thereafter, the cells were washed, incubated for another 2 h, washed again, and then incubated for a further 4 h. This set of cells was then stimulated with EGF and extracts were prepared as for the first set.

A431 cells = experiment: SRB growth inhibition assay in A431 cells; format: cell-based, human; conditions: for IC50: Homo sapiens
Experimental: All growth inhibitory activities were evaluated using the SRB assay (33). Briefly, following drug treatment, cells were fixed using 50 μL of cold trichloroacetic acid (50%) for 60 min at 4° C., washed five times with tap water, and stained for 30 min at room temperature with SRB (0.4%) dissolved in acetic acid (0.5%). The plates were rinsed five times with 1% acetic acid and allowed to air dry. The resulting colored residue was dissolved in 200 μL of Tris base (10 mM), and the optical density read for each well at 540 nm using a Bio-Rad microplate reader (model 2550). […]
Cell monolayers were continuously exposed to different concentrations of each drug for 72 h. Under short exposure, they were treated with each drug for 2 h and allowed to recover for 72 h in drug-free medium.
To study the reversibility of the antiproliferative effects of our compounds, cells were grown to 70% confluence in 96-well plates and subsequently washed twice with PBS, after which they were exposed to serum-free medium for 18 h. Under continuous exposure, the cells were exposed to different concentrations of each drug for 120 h. Under short exposure, they were exposed to each drug for 2 h, after which they were allowed to recover for 120 h in drug free medium. Growth inhibitory activities were evaluated using the SRB assay as described above.

[3] = target: T2, cytoplasmic domain of the insulin receptor β subunit (Homo sapiens, UniProt P06213); experiment: insulin receptor kinase ELISA; format: biochemical; conditions: 1-100 μM range
T2 construct: Baculovirus-expressed cytoplasmic domain of the insulin receptor β subunit; purchased Biomol Research laboratories Inc., USA; host or cells: Baculovirus expression
T2 sequence (P06213 980-1382 limits assumed): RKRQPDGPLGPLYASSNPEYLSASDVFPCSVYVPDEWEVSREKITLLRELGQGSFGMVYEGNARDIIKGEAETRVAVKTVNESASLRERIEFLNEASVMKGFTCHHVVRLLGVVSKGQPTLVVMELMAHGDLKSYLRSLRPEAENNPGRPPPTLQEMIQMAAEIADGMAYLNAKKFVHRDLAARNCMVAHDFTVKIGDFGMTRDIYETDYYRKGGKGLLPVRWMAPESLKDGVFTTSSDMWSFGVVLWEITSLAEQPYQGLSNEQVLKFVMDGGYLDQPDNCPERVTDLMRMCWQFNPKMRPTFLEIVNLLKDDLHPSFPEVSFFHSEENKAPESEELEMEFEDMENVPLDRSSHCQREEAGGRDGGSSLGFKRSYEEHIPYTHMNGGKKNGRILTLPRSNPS
Experimental: (§1) Conditions for the c-src and insulin kinase assays were similar to those of the EGFR kinase assay, with the exception of the addition of 1 mM manganese chloride to the assay buffer, and a final ATP concentration of 100 μM. The reaction was terminated by the addition of 50 μl of a 250 mM solution of EDTA prior to aspiration.

[4] = Degradation in serum-containing cell culture medium (UV, HPLC); format: in vitro ADME; conditions: bovine, 37° C.
Experimental: Thereafter, proteins were precipitated by the addition of acetonitrile (3.5 ml) and the supernatant collected by centrifugation. […] The operating mode was isocratic and two solutions, “A” (50% acetonitrile) and “B” (50% water), were used with a 0.5 ml/min flow rate and a 5 μL injection volume. […] For the rapid quantitation of metabolite, a less polar acetonitrile-water (70:30) eluent was used.
The half-life was estimated by a one-phase exponential decay curve-fit method using the GraphPad software package (GraphPad Software, Inc., San Diego, Calif.).
The half-life of BJ2000 under physiological conditions was studied by UV-spectrophotometry. BJ2000 was dissolved in a minimum volume of DMSO, diluted with RPMI-1640 supplemented with 10% FBS, and absorbencies read at 340 nm in a UV cell maintained at 37° C. with a circulating water bath. The half-life was estimated by a one-phase exponential decay curve-fit method, using the GraphPad software package (GraphPad software, Inc., San Diego, Calif., USA).
Proteins were thereafter precipitated by the addition of acetonitrile (3.5 ml), and the supernatant collected by centrifugation. […] HPLC analyses were performed on a Hewlett Packard 1090 liquid chromatograph, using a Waters C4 15-μm 300×3.9-mm reverse phase column to characterize and quantitate the products resulting from the degradation of BJ2000. […] The peaks were detected at 250 nm.

human c-src = target: T3, human c-src (Homo sapiens, UniProt P12931); experiment: c-src kinase ELISA; format: biochemical; conditions: 1-100 μM range
T3 construct: purchased Upstate NY; host or cells: Baculovirus expression
T3 sequence (P12931 whole entry): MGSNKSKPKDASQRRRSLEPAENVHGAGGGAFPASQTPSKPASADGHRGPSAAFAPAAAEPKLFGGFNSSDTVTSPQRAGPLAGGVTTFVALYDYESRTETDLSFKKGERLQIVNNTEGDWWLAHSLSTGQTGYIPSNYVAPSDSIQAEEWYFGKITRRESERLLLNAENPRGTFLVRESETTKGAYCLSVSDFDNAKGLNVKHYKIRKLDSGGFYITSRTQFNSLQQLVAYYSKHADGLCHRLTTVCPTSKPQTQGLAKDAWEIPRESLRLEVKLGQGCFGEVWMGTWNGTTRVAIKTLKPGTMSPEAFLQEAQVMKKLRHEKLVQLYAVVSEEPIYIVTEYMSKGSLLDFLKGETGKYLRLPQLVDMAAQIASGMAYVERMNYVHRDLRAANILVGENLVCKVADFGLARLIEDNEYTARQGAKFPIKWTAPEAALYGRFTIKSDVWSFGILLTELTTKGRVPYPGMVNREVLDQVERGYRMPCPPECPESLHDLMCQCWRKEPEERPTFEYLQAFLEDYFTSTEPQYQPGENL
Experimental: as §1

PDGFR = experiment: PDGF-induced PDGFR autophosphorylation in NIH3T3 cells (Western blot); format: cell-based, mouse; conditions: concentrations as high as 30 μM
Experimental: The inhibition of receptor autophosphorylation in viable cells was determined by anti-phosphotyrosine Western Blots. A431 and NIH3T3 cells were grown to confluence in 6-well plates, washed twice with PBS and exposed to serum-free medium for 18 h. They were subsequently treated with the compounds for 90 min and then with EGF (100 ng/ml) for 10 min (A431 cells), or with PDGF (100 ng/ml) for 10 min (NIH3T3 cells). They were thereafter washed with PBS and re-suspended in cold lysis buffer [50 mM Tris-HCl pH 7.5; 150 mM NaCl; 1% Nonidet P-40, 1 mM EDTA; 5 mM NaF; 1 mM Na3VO4; protease inhibitor tablet (Roche Biochemicals, Laval, Canada)]. The lysates were kept on ice for 30 min and collected by centrifugation at 10,000 rpm for 20 min at 4° C. Protein concentrations were determined against a standardized control using the Bio-Rad protein assay kit (Bio-Rad Laboratories, Hercules, Calif.). Equal amounts of protein (40 μg/mL) from each cell lysate were added to an 8% SDS-polyacrylamide gel electrophoresis (SDS-PAGE) and transferred to a polyvinylidene difluoride membrane (PVDF) (Millipore, Bedford, Mass.). Non-specific binding on the membrane was minimized with a blocking buffer containing non-fat dry milk (3%) in PBS. […] Band intensities were measured using the SynGene GeneTools software package (Cambridge, UK).

T1 sequence (P00533 25-1210): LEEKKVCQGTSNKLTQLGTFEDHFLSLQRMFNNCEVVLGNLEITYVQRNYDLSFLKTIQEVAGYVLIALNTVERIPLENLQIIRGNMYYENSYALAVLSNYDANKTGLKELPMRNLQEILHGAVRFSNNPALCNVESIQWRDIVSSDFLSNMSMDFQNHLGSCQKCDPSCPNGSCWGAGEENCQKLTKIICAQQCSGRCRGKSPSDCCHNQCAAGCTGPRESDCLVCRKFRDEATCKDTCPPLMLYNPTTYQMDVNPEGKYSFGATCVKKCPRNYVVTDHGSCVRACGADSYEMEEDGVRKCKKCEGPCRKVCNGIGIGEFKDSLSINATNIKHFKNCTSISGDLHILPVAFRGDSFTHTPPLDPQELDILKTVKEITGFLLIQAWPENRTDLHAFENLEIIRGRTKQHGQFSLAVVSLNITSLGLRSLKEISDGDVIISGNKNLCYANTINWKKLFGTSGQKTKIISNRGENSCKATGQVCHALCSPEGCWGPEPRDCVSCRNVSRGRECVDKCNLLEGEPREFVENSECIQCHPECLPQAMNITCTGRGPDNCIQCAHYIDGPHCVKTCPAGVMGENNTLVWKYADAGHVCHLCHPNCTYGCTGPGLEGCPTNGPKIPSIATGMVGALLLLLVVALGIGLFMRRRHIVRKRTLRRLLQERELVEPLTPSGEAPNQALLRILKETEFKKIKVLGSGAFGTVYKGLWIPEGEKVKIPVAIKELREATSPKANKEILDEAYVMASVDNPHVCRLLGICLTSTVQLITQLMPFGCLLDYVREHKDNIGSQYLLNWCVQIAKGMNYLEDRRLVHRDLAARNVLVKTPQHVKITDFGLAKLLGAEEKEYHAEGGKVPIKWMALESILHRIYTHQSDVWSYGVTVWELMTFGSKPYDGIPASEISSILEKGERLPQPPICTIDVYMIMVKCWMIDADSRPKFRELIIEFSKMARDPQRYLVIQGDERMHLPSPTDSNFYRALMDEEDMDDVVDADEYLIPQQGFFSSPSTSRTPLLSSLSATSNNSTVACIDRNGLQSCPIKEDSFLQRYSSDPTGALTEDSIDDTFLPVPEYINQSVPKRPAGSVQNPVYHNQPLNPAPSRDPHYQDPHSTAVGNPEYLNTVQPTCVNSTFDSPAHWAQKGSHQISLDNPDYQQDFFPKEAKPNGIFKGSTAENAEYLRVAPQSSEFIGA

CNN=Nc1ccc2ncnc(Nc3cccc(Cl)c3)c2c1 [BJ2000]
fold stronger affinity than SMA41 (EGFR [1]): 2 fold
IC50 (EGFR [1]; ELISA, PGT substrate, purified EGFR, ATP 20 μM, 8 min, read-out: IC50, inhibition of EGFR TK (competitive binding at ATP site)): 0.1 µM
fold greater EGFR binding affinity than metabolite FD105 (EGFR [1]; purified EGFR, ATP site): 2 fold
EGF-dependent EGFR autophosphorylation immediately after drug exposure (EGFR [2]; 90 min): completely suppressed
EGFR autophosphorylation activity restored (EGFR [2]; 8 h post-treatment in drug-free medium after repeated washouts): 40%
fold more potent than metabolite FD105 (A431 cells; 120 h continuous, SRB, A431): ≈ 3 fold
IC50 (A431 cells; A-431, 120 h, read-out: IC50 growth inhibition): 15 µM
IC50 (A431 cells; A-431, read-out: IC50 growth inhibition): 38 µM
effect on insulin receptor TK [3]: nor did it exert any effect on insulin receptor TK
half-life ([4]; serum-containing cell culture medium (RPMI with 10% serum), RPMI with 10% serum, read-out: half-life (t1/2) by UV spectrophotometry at 340 nm): 34 min
half-life at 625 µM ([4]; RPMI-1640 with 10% FBS, read-out: half-life (t1/2) by HPLC analysis): 75 min
effect on c-src TK activity (human c-src): did not block c-src TK activity
effect on PDGF-induced PDGFR autophosphorylation (PDGFR): no effect
